According to patent EP4483904A1, “POLYOXOMETALATES AS MEMBRANE CARRIERS” (Universität Wien, priority 2023, dated 2025):
Each block holds one molecule with its values, some of them ahead of it.

Key:
[1] = HPTS/DPX assay of membrane transport in EYPC vesicles; assay type: biochemical; details: Measured by HPTS/DPX assay
[2] = Stability investigation by NMR spectroscopy (hydrolysis in buffer/media); assay type: physicochemical; details: for Hydrolysis/Stability pH 7.5: 10 mM Hepes or 10 mM Tris, pH 7.4; for Hydrolysis/Stability pH 7.5 / Hydrolysis/Stability pH 5.5: 107 mM NaCl; for Hydrolysis/Stability pH 5.5: 10 mM Mes; for long-term stability in aqueous solution: slightly acidic and neutral pH, 24 h and longer, NMR
Excerpt: POMs of the globular Keggin and planar Anderson archetype and with varying charge status from -3 to -8 (Fig. 1) were selected. To offset the known [XW12O40]^n- (X = hetero-ion) hydrolysis propensity in aqueous solution, most pronounced at neutral pH, more highly charged mixed-metal derivatives (Fig. 1,lefthand side) were also included. The latter are obtained by hydrolytic removal of one W=O^4+ unit from the Keggin structure and the subsequent incorporation of an addenda metal to fill the cavity of the monolacunary intermediate. In detail, the following POM anions were studied (as acid or sodium, potassium, or tetraalkylammonium salts), see Fig. 1: [α-P^VW^VI12O40]^3- ([PW12]^3-), [α-Si^IVW^VI12O40]^4- ([SiW12]^4-), [α-Al^IIIW^VI12O40]^5- ([AlW12]^5-), [α-P^VV^VW^VI11O40]^4- ([PVW11]^4-), [α-Si^IVMo^VIW^VI11O40]^4- ([SiMoW11]^4-), [α- HAl^IIIGe^IVW^VI11O39(H2O)]^5- ([GeAlW11]^5-), [{α-P^VW^VI11O39Zr^IV(µ-OH)(H2O)}2]^8- ([(PZrW11)2]^8-), and [Al^III(OH)6Mo^VI6O18]^3- ([AlMo6]^3-). First, their long-term (24 h and longer) stability in aqueous solution (slightly acidic and neutral) was investigated by applying the active NMR nuclei in their composition (see).

[3] = Transport experiments in CF-loaded zwitterionic EYPC vesicles (CF fluorescence, Hill analysis); assay type: biochemical; design: key to membrane transport activity: - - -: No detectable activity at pH 5.5 and 7.4; details: for membrane transport activity: pH 5.5 and 7.4, heptaArg, protamine, polyArg (for [AlMo6]^3- heptaArg and protamine only); for behaviour towards liposomes at strongly acidic pH: pH 1.2
Procedure: The dry film was rehydrated with 1 mL buffer (50 mM CF, 10 mM Hepes, pH 7.4 or 50 mM CF, 10 mM Tris, pH 7.4) for 30 min at room temperature, subjected to freeze-thaw cycles (7 times) and extrusions (15 times) through a polycarbonate membrane (pore size 100 nm). Extravesicular components were removed by size exclusion chromatography (NAP-25 column Sephadex G-25 DNA grade) with 10 mM Hepes, 107 mM NaCl, pH 7.4 or 10 mM Hepes, 107 mM NaCl, pH 7.4. Phospholipid concentration was calculated by the Stewart assay. […]
Vesicles stock solutions (5-10 µL) were diluted with the corresponding buffer in a disposable plastic cuvette and gently stirred (total volume 2000 µL, final lipid concentration 13 µM). […] Fluorescence intensities were normalized to fractional emission as: I(t) = (It −I0)/(I∞ −I0) [formula]
Where I0 = It before POM addition and […] = I∞ after lysis. For Hill analysis, It before lysis was defined as transport activity, Y, and plotted against POM concentration, c, and fitted to the Hill equation (2), to afford the activity in absence of POM, Y0, the maximal activity, Ymax, the concentration needed to achieve 50 % of maximal activity, EC50, and the Hill coefficient, n. Y = Y0 + (Ymax −Y0)/(1 + (((EC50)/(c)))^n) [formula]
In the transport measurements, where different carriers (POMs) are tested with the same cargo, the activator efficiency (E) is determined by their capacity to transport the impermeable cargo to the intravesicular region and is characterized by Ymax, its maximal activity, and EC50, the effective activator concentration. An ideal carrier reaches high Ymax at low EC50. To count both factors, the activator efficiency is defined as: E = Ymax (pEC50)/(f) [formula] were pEC50 is the negative logarithm of the EC50, and fa scaling factor, which was set to 20.6 to calibrate the highest (previously known) activation efficiency, E, as 10.
The capability of POMs to act as membrane carriers was explored first in large unilamellar vesicles (LUVs), loaded with carboxyfluorescein (CF). We selected […] representative cationic peptides, heptaarginine (heptaArg), heptalysine (heptaLys), protamine, and polyarginine (polyArg), as test cargos. Inside the LUVs, the CF dye was encapsulated at self-quenching concentrations. With a suitable carrier, heptaArg can be taken up into the vesicles, bind with entrapped CF, and shuttle back to the exterior, spreading the previously quenched CF, and thereby restoring its fluorescence (Fig. 3). In the time-resolved fluorescence experiments, to test whether a POM acts as molecular carrier, the CF emission was continuously monitored during the addition of the inorganic carrier (t = 60 s) and after injection the impermeable heptaArg (t = 120 s). At the end of the experiment (t = 600 s), the surfactant Triton X-100 was added to release all the entrapped CF and allow normalization of the intensity data (Fig. 4a).

[4] = EYPC vesicles, 0.1 µM polyArg, neutral pH 7.4
[5] = EYPC vesicles, 0.1 µM polyArg, neutral pH 7.4, read-out: PolyArg EC50
[6] = EYPC vesicles, 1 µM protamine, neutral pH 7.4
[7] = Tris-HCl pH 7.5 freshly prepared

Molecule: B12Br12^2-
- PolyArg E (activation efficiency) ([1]; 0.1 µM polyArg, pH 7.4): 12
- PolyArg Ymax ([1]; 0.1 µM polyArg, pH 7.4): 94%
- EC50 ([1]; 0.1 µM polyArg, pH 7.4, read-out: PolyArg EC50): 2.6 µM
- Protamine E (activation efficiency) ([1]; 1 µM protamine, pH 7.4): 8.0
- Protamine Ymax ([1]; 1 µM protamine, pH 7.4): 84%
- EC50 ([1]; 1 µM protamine, pH 7.4, read-out: Protamine EC50): 11 µM
- HeptaArg E (activation efficiency) ([1]; 10 µM heptaArg, pH 7.4): 6.1
- HeptaArg Ymax ([1]; 10 µM heptaArg, pH 7.4): 95%
- EC50 ([1]; 10 µM heptaArg, pH 7.4, read-out: HeptaArg EC50): 48 µM
- Hydrolysis/Stability pH 7.5 [2]: stable
- Hydrolysis/Stability pH 5.5 [2]: stable

Molecule: O=C(O)CCCc1ccc2ccc3cccc4ccc1c2c34 [PyBu^-, pyrenebutyrate, reference compound]
- PolyArg E (activation efficiency) [3, 4]: 8.5
- PolyArg Ymax [3, 4]: 91%
- EC50 [3, 5]: 12 µM
- Protamine E (activation efficiency) [3, 6]: 5.3
- Protamine Ymax [3, 6]: 77%
- EC50 ([3]; EYPC vesicles, 1 µM protamine, neutral pH 7.4, read-out: Protamine EC50): 39 µM
- HeptaArg Ymax ([3]; EYPC vesicles, 10 µM heptaArg, neutral pH 7.4): 100%
- HeptaArg E (activation efficiency) ([3]; EYPC vesicles, 10 µM heptaArg, neutral pH 7.4, E = Ymax(pEC50/f), f = 20.6): 4.8
- EC50 ([3]; EYPC vesicles, 10 µM heptaArg, neutral pH 7.4, read-out: HeptaArg EC50): 100 µM
- efficacy when the sequence of carrier-cargo addition was reversed ([3]; heptaarginine 10 µM, Fig. 12): significantly reduces its activity
- Hydrolysis/Stability pH 7.5 [2]: stable
- Hydrolysis/Stability pH 5.5 [2]: stable

Molecule: Na3[Al^III(OH)6Mo^VI6O18]·2H2O [[AlMo6]^3-]
- PolyArg E (activation efficiency) [3, 4]: 3.1
- PolyArg Ymax [3, 4]: 33%
- EC50 [3, 5]: 11 µM
- membrane transport activity ([3]; EYPC vesicles): - - -[j]
- cargo transport in CF-loaded vesicles (qualitative) ([3]; LUVs loaded with CF, added cargo): incipient transport activity, but only for polyarginine as cargo
- Hydrolysis/Stability pH 7.5 [2]: stable
- POM anions with % for parent (active) anion based on signals integration ([2]; Hepes pH 7.5 after 1 day): [Al^III(OH)6MO^VI6O18]^3-
- POM anions with % for parent (active) anion based on signals integration ([2]; Hepes pH 7.5 freshly prepared): [Al^III(OH)6MO^VI6O18]^3-

Now from value to molecule, other results behind:

- Hydrolysis/Stability pH 7.5 [2]: stable
- POM anions with % for parent (active) anion based on signals integration ([2]; Tris-HCl pH 7.5 after 1 day): [HAl^IIIGe^IVW^VI11O39(H2O)] ^4-
- POM anions with % for parent (active) anion based on signals integration [2, 7]: [HAl^IIIGe^IVW^VI11O39(H2O)] ^4-
- long-term stability in aqueous solution [2]: stable at neutral pH
Molecule: (C4H12N)4[α-HAl^IIIGe^IVW^VI11O39(H2O)]·11H2O [[GeAlW11]^5-]
- membrane transport activity ([3]; EYPC vesicles): - - -[j]

- Hydrolysis/Stability pH 7.5 [2]: stable
Molecule: (Et2NH2)8[{α-P^VW^VI11O39Zr^IV(µ-OH)(H2O)}2]·7H2O [[(PZrW11)2]^8-]
- membrane transport activity ([3]; EYPC vesicles): - - -[j]
- POM anions with % for parent (active) anion based on signals integration ([2]; Hepes pH 7.5 after 1 day): [{α-PW11O39Zr(µ-OH)(H2O)}2]^8-·(99 %) and [Zr(α-PW11O39)2]^10-
- POM anions with % for parent (active) anion based on signals integration ([2]; Hepes pH 7.5 freshly prepared): [{α-PW11O39Zr(µ-OH)(H2O)}2]^8-·(99 %) and [Zr(α-PW11O39)2]^10-

- Hydrolysis/Stability pH 5.5 [2]: to [P^VW^VI11O39]^7-
- % of hydrolysis product [P^VW^VI11O39]^7- based on signals integration ([2]; Mes pH 5.5 after 1 day): 61%
- POM anions with % for parent (active) anion based on signals integration ([2]; Mes pH 5.5 after 1 day): 5%
- % of hydrolysis product [P^VW^VI11O39]^7- based on signals integration ([2]; Mes pH 5.5 freshly prepared): 61%
- POM anions with % for parent (active) anion based on signals integration ([2]; Mes pH 5.5 freshly prepared): 4%
- hydrolysis above pH 4.5 [2]: rapid hydrolysis
- long-term stability in aqueous solution [2]: fully hydrolyzed
Molecule: Na3[α-P^VW^VI12O40]·nH2O [[PW12]^3-]
- membrane transport activity ([3]; EYPC vesicles): - - -[j,k]
- behaviour towards liposomes at strongly acidic pH [3]: strong interaction and membrane disruption
- POM anions with % for parent (active) anion based on signals integration ([2]; NaOAc/HOAc pH 4 after 1 day): [P^VW^VI12O40]^3- (28 %) and intermediate anions
- POM anions with % for parent (active) anion based on signals integration ([2]; NaOAc/HOAc pH 4 freshly prepared): [P^VW^VI12O40]^3- (30 %) and intermediate anions

- Hydrolysis/Stability pH 7.5 [2]: stable
- POM anions with % for parent (active) anion based on signals integration ([2]; Tris-HCl pH 7.5 after 1 day): [Al^IIIW^VI12O40]^5-
- POM anions with % for parent (active) anion based on signals integration [2, 7]: [Al^IIIW^VI12O40]^5-
- long-term stability in aqueous solution [2]: stable at neutral pH
Molecule: Na5[α-Al^IIIW^VI12O40]·12H2O [[AlW12]^5-]
- membrane transport activity ([3]; EYPC vesicles): - - -[j]

- Hydrolysis/Stability pH 7.5 [2]: to [Si^VW^VI8O39]^8-
- hydrolysis above pH 4.5 [2]: rapid hydrolysis
- long-term stability in aqueous solution [2]: fully hydrolyzed
Molecule: K4[α-Si^IVW^VI12O40]·14H2O [[SiW12]^4-]
- membrane transport activity ([3]; EYPC vesicles): - - -[jilt]
- behaviour towards liposomes at strongly acidic pH [3]: showed the desired cargo transport at acidic pH, without membrane disruption
- POM anions with % for parent (active) anion based on signals integration ([2]; Hepes pH 7.5 (time not given)): [Si^IVW^VI12O40]^4- and [Si^IVW^VInO39]^8- (high noise to signal ratio, correct integration of peak cannot be performed; but clearly [Si^IVW^VI11O39]^8- is predominant)
